Assay results reported in patent US7011845B2, “β-glucans encapsulated in liposomes” (MCP Hahnemann University, priority 2000, dated 2006).

Columns and labels:
[1] = test system: splenocytes stimulated with rgp160
[2] = Quantification of lentinan in serum after oral administration (Fungitec G test); assay type: in vivo; settings: mice fed orally four times with 100 μg (total 400 μg) during 4 hr, serum 2 hr after last administration, mean ± SD
Experimental: Formulations of 400 μg of lentinan dissolved in PBS or associated with liposomes were delivered orally in four doses to fasted mice over a period of 4 hrs. The level of lentinan in blood serum was measured 2 hr after the delivery using the Fungitec G test (Seikagaku Co., Inc.), according to the manufacturer's protocol. Background activity was determined by analyzing lentinan levels in sera of control mice.
We first investigated whether lentinan dissolved in PBS or associated with liposomes would penetrate through the epithelial barrier of the gut. Mice were fed with four doses of liposome-associated or unencapsulated lentinan (total concentration of 400 μg) over a 4-hr period. The level of lentinan in blood serum was analyzed 2 hr after lentinan administration.

Lentinan
Toxic effect to the cells [1]: without any detectable toxic effect | Env-specific IFN-γ level relative to stimulation with rgp160 in the absence of lentinan ([1]; lentinan 3 μg/ml to 100 μg/ml, 3 days, FIG. 3): ~2 fold | Effect on env-specific IFN-γ production ([1]; lentinan higher than 100 μg/ml or lower than 3 μg/ml): smaller effect | Serum concentration of lentinan ([2]; listed as Unencapsulated lentinan): 1,325 ± 1,241 pg/ml | Serum concentration of lentinan ([2]; listed as unencapsulated lentinan): 1,325±1,241 pg/ml
